The source of these data is patent US7491747B2, “Butyric acid derivatives” (Merck Patent GmbH, priority 2001, dated 2009).

The test system of data set [1] is db/db mice. The data set can be described thus: Antidiabetic and hypolipidaemiant activity, oral, in db/db mice. In kind it is in vivo. Particulars: oral 20 mg/kg/day for 15 days. Here is the method: The antidiabetic and hypolipidaemiant activity of the compounds was determined orally in db/db mice.
16 week-old db/db mice are treated orally for 15 days with the compound of Example 5 (20 mg/kg/day). Each group studied comprises seven animals. After treatment for 15 days, retro-orbital samples are taken after a mild anaesthesia and fasting for 4 hours.
The following parameters were measured:
Glycaemia assay (glucose oxidase) and assay of the lipid parameters on the sera at D15 (COBAS): triglycerides, total cholesterol (CHOL), the HDL cholesterol (HDL-C) and the free fatty acids (FFA) (BioMérieux and Waco Chemicals assay kit).
The measurements given represent mean values±standard error.

In data set [2] the test system is vector expressing Gal4 alone. The data set can be described thus: Luciferase reporter control without PPAR ligand binding region in CV-1 cells. In kind it is cell-based. Particulars: in the presence of the product. The source says: CV-1 cells (monkey kidney cells) are co-transfected with an expression vector for the chimeric proteins PPARα-Gal4 or PPARγ-Gal4 and with a “reporter” plasmid which allows the expression of the luciferase gene placed under the control of a promoter containing Gal4 response elements. The cells are inoculated in 96-zwell microplates and co-transfected using a commercial reagent with the reporter plasmid (pG5-tk-pGL3) and the expression vector for the chimeric protein (PPARα-Gal4 or PPARγ-Gal4). After incubating for 4 hours, whole culture medium (containing 10% foetal calf serum) is added to the wells. After 24 hours, the medium is removed and replaced with whole medium containing the test products (50 μM final). The products are left in contact with the cells for 18 hours. The cells are then lysed and the ludferase activity is measured using a luminometer. A PPAR activation factor can then be calculated by means of the activation of the expression of the reporter gene induced by the product (relative to the control cells that have not received any product). […] In the absence of the binding region for the PPARα or γ ligand (vector expressing Gal4 alone), the luciferase activity measured in the presence of this product is zero.
Background: In a reporter assay the amount or activity of a reporter protein is the signal.

The target of data set [3] is T1, chimeric protein PPARα-Gal4 (Homo sapiens, UniProt Q07869).
T1 construct: Gal4 (fusion partner); expressed in transfected cells; host or cells: CV-1 cells (monkey kidney cells)
T1 sequence (Q07869 239-466 limits assumed): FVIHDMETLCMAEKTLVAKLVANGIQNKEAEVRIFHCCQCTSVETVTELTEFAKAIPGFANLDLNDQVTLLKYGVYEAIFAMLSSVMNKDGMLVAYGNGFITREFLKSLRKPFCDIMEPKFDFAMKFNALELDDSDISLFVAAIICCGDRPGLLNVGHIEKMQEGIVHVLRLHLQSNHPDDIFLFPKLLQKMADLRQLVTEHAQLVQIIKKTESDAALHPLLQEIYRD
The data set can be described thus: PPAR activation, Gal4 chimera luciferase reporter in co-transfected CV-1 cells. The class given is cell-based. Particulars: 50 μM, 18 hours contact. Here is the method:
(§1) The measurement of the PPAR activation was performed according to a technique described by Lehmann et al. (1995, J. Biol. Chem. 270: 12953-12956).
(§2) CV-1 cells (monkey kidney cells) are co-transfected with an expression vector for the chimeric proteins PPARα-Gal4 or PPARγ-Gal4 and with a “reporter” plasmid which allows the expression of the luciferase gene placed under the control of a promoter containing Gal4 response elements.
(§3) The cells are inoculated in 96-zwell microplates and co-transfected using a commercial reagent with the reporter plasmid (pG5-tk-pGL3) and the expression vector for the chimeric protein (PPARα-Gal4 or PPARγ-Gal4). After incubating for 4 hours, whole culture medium (containing 10% foetal calf serum) is added to the wells. After 24 hours, the medium is removed and replaced with whole medium containing the test products (50 μM final). The products are left in contact with the cells for 18 hours. The cells are then lysed and the ludferase activity is measured using a luminometer. A PPAR activation factor can then be calculated by means of the activation of the expression of the reporter gene induced by the product (relative to the control cells that have not received any product).

Data set [4] addresses T2, chimeric protein PPARγ-Gal4 (Homo sapiens, UniProt P37231).
T2 construct: Gal4 (fusion partner); expressed in transfected cells; host or cells: CV-1 cells (monkey kidney cells)
T2 sequence (P37231 238-503 limits assumed): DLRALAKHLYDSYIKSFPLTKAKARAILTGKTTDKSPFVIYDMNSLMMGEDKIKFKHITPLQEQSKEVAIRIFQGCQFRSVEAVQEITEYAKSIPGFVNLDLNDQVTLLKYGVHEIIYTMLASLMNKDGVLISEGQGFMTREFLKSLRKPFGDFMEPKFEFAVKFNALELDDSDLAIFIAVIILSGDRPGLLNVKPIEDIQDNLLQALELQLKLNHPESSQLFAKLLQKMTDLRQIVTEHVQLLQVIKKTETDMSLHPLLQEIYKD
The data set is described as above. In kind it is cell-based. Particulars: 50 μM, 18 hours contact. On the procedure:
as §1, §2, §3

Setting [5] is: serum D15, mean ± standard error.

`O=C(O)C(CCSc1ccccc1)Oc1ccc(C(F)(F)F)cc1` (centres unmarked) [Example 5, 4-phenylsulphanyl-2-(4-trifluoromethylphenoxy)butyric acid]: the melting point was in the range of 108 to 110 °C. In data set [1] (D15, * p < 0.05 vs control), the “CHOL, % variation relative to the control” value is 47* %; the “FFA, % variation relative to the control” value is −38* %; the “Glycaemia, % variation relative to the control” value is −59* %; the “HDL-C, % variation relative to the control” value is 36* %. The “Triglycerides, % variation relative to the control” value in data set [1] (D15, * p < 0.05 vs control) was −47* %. For the same compound, the Glycaemia in data set [1] (D15, fasting 4 hours, mean ± standard error) was determined as 11.1 ± 3.3 mM. Besides, in data set [1] (setting [5]), the “CHOL (total cholesterol)” value stood at 5.4 ± 0.9 mM, the “FFA (free fatty acids)” value stood at 0.4 ± 0.0 mM, the HDL-C is listed as 4.3 ± 0.6 mM and the Triglycerides is given as 0.7 ± 0.1 mM. Also, in data set [2], the “luciferase activity in the absence of the binding region for the PPARα or γ ligand” value is given as “zero”. The “PPAR activation factor (reporter gene expression relative to control cells)” value in data set [3] is reported as “nine”. The “PPAR activation factor (reporter gene expression relative to control cells)” value in data set [4] is on record as “six”.

As a reminder, the melting point is the temperature of the solid-liquid transition.
